Measured values: patent publication US20240238327A1 (priority 2021, published 2024)

Key:
[1] = test system: outer hair cells in the cochlea; conditions: 5 g/kg brain weight intraventricular; one week after injection
Protocol: (§1) To assess systemic toxicity, cyclodextrin dissolved in PBS was subcutaneously injected in an amount of 10 g/kg body weight to wild-type C57/BL6 mice. […] The body weight and behavioral characteristics of the mice were observed every day for a week. The behavioral characteristics of the mice were measured according to the criteria presented in Endpoints for Mouse Abdominal Tumor Models: Refinement of Current Criteria. In order to confirm toxicity to major organs, the mice were sacrificed 7 days later, and H&E staining was performed. In order to assess ototoxicity, the mice were sacrificed 7 days later, and the outer hair cells in the cochlea were quantified through microscopic observation. […] The brain weight of the mice was calculated to be about 0.4 g according to the age, and as a result, 2 mg of cyclodextrin was dissolved in 10 μL of PBS and injected. After 7 days, the outer hair cells in the cochlea were quantified through microscopic observation.
(§2) Also, the histological analysis of the major organs of the mice after one week is shown in FIG. 24, and ototoxicity of the C57BL/6 mice was evaluated one week after subcutaneously injecting 10 g/kg of cyclodextrin and intraventricularly injecting 5 g/kg brain weight of cyclodextrin. […]

[2] = test system: Raw 264.7 cells; experiment: cytotoxicity (CCK-8 cell viability); assay type: cell-based; conditions: monomers, 20 mg/mL
Protocol: Raw 264.7 cells were maintained in a DMEM containing 10% FBS and 1% penicillin/streptomycin. 5×10^4 cells were dispensed in each well of a 96-well plate, and after 24 hours, the cells were treated with cyclodextrin at a concentration of 20 mg/mL. After culturing the cells at 37° C. in 5% CO2, a CCK-8 agent was added, 10 μL at a time.

[3] = test system: Raw 264.7 cells; experiment: plasma membrane cholesterol extraction from fixed cells; assay type: cell-based; conditions: for plasma membrane cholesterol extraction: monomers, 20 mg/mL in PBS, 37° C., 1 hour, fixed cells
Protocol: Raw 264.7 cells were maintained in a Dulbecco's modified Eagle's medium (DMEM) containing 10% fetal bovine serum (FBS) and 1% penicillin/streptomycin. In order to suppress endocytosis of cyclodextrin and induce only plasma membrane cholesterol extraction, 1×10^5 cells were fixed at room temperature for 20 minutes using formaldehyde, and then cyclodextrin was dissolved in PBS in a concentration of 20 mg/mL and treated to the cells at 37° C. for 1 hour. The treated PBS was collected, centrifuged at a rate of 14,000 g for 30 minutes to remove cell debris and microvesicles, and then the cholesterol concentration in the supernatant was quantified using a Cholesterol Quantification Kit (Sigma Aldrich). The plasma membrane cholesterol extraction of gamma-cyclodextrins and polymers thereof was compared with alpha and beta-cyclodextrins and polymers thereof. […] The plasma membrane cholesterol extraction induced by gamma-cyclodextrins and polymers thereof was compared with alpha- and beta-cyclodextrins and polymers thereof, and the results are shown in FIG. 5.

[4] = cholesterol crystal dissolution; assay type: physicochemical; conditions: monomers; 20 mg/mL, 37° C., 2 hours; NBD-cholesterol fluorescence
Protocol: First, in order to form cholesterol crystals, a solution including 2 mg/ml of cholesterol and 0.2 mg/ml of NBD-cholesterol in ethanol was prepared, and then distilled water (30% v/v) was added to the solution to induce crystallization. The solution was completely dried under vacuum, resuspended in PBS, and sonicated for 30 seconds. 20 μL of 5 mM cholesterol was mixed with 300 μL of 20 mg/mL cyclodextrin and reacted at 37° C. for 2 hours. After centrifuging the mixture at 14,000 g for 30 minutes to remove undissolved cholesterol crystals, the supernatant was collected and the fluorescence of dissolved NBD-cholesterol was measured at 480 nm/520 nm, and the cholesterol crystal dissolution levels depending on the molecular weights of hydroxypropyl-alpha-, -beta-, -gamma-cyclodextrin monomers and polymers were confirmed.

[5] = test system: Raw 264.7 cells; experiment: intracellular cholesterol excretion in macrophages that had taken up fluorescent cholesterol; assay type: cell-based; conditions: 5 mg/mL, 48 hours; PBS control set to 100%
Protocol: Raw 264.7 cells were dispensed at 5×10^4 cells per well of a 96-well plate, and after 24 hours, the cells were treated with cholesterol crystals at a concentration of 50 μM. […] The cells were cultured at 37° C. in 5% CO2 for 48 hours, and intracellular cholesterol fluorescence was analyzed using a fluorescence microscope. In addition, to investigate the effect of cyclodextrin on intracellular cholesterol metabolism, the amount of ATP-binding cassette transporter (ABCA1) involved in cholesterol excretion was quantified using a cell flow rate analyzer, and cholesteryl ester, which is a storage form of cholesterol, was quantified.

[6] = test system: whole blood from wild-type C57/BL6 mice; experiment: hemolytic activity; assay type: cell-based; conditions: monomers; 50 mg/ml in PBS, 37° C., 1 hour
Protocol: For hemolytic activity analysis, 30 μL of whole blood from wild-type C57/BL6 mice was mixed with 300 μL of a PBS solution containing 50 mg/ml of cyclodextrin and reacted at 37° C. for 1 hour. After centrifuging the mixture at 3,000 g for 5 minutes, the absorbance at 540 nm was measured using the supernatant.

[7] = systemic toxicity (body weight, behavioral score, organ histology); conditions: 10 g/kg subcutaneous; one day after administration
Protocol: as §1, §2

Row | Molecule | outer hair cell survival [1] | cell viability [2] | plasma membrane cholesterol extraction [3] | cholesterol crystal dissolution [4] | amount of intracellular cholesterol [5] | hemolytic activity [6] | lowest behavioral score, average [7] | level of plasma membrane cholesterol extraction (in words) ([3]; 20 mg/mL, compared with alpha- and beta-cyclodextrin monomers and polymers, or with the monomers)
1 | CC(O)COC[C@H]1O[C@@H]2O[C@H]3[C@H](O)[C@@H](O)[C@@H](O[C@H]4[C@H](O)[C@@H](O)[C@@H](O[C@H]5[C@H](O)[C@@H](O)[C@@H](O[C@H]6[C@H](O)[C@@H](O)[C@@H](O[C@H]7[C@H](O)[C@@H](O)[C@@H](O[C@H]8[C@H](O)[C@@H](O)[C@@H](O[C@H]1[C@H](O)[C@H]2O)O[C@@H]8COCC(C)O)O[C@@H]7COCC(C)O)O[C@@H]6COCC(C)O)O[C@@H]5COCC(C)O)O[C@@H]4COCC(C)O)O[C@@H]3COCC(C)O (stereo partly drawn) [hydroxypropyl-beta-cyclodextrin] | 27.5% | 9.6% | 45% | 32.3% | 80.5% | 97.1% |  | 
2 | cyclodextrin |  |  |  |  |  |  | 6 points | 
3 | hydroxypropyl-alpha-cyclodextrin |  | 14.2% | 42.8% | 21.9% |  |  |  | 
4 | hydroxypropyl-gamma-cyclodextrin | 69.7% | 93.9% | 5% | 12.1% | 75% |  |  | significantly low levels of cholesterol extraction
